Experimental data taken from PMC3071440 (Journal of medicinal chemistry, 2010).

Tests used:
[1] = In vivo PK in rats following oral administration; details: rat, oral 10 mg/kg, harvested at or near Tmax
[2] = rat, oral 10 mg/kg; cited from earlier work

O=C(O)c1cc(-c2cccc(COc3ccc4c(c3)CN(C3CCCC3)C4=O)c2)ccc1Cl [Compound 8a, 4-Chloro-3′-((2-cyclopentyl-1-oxoisoindolin-5-yloxy)-methyl)biphenyl-3-carboxylic acid]
Brain level [1]: 3.8 ± 1.2 µM

Cc1c(OCc2cccc(-c3ccc(C(=O)O)cc3)c2)cc2c(c1C)C(=O)C(C1CCCC1)C2 (centres unmarked) [Compound 1, 3′-((2-cyclopentyl-6,7-dimethyl-1-oxo-2,3-dihydro-1H-inden-5-yloxy)methyl)biphenyl-4-carboxylic acid]
brain levels following oral dosing [2]: below the limit of quantitation
